Source: patent publication US20090286839A1, “PHYTONUTRIENT COMPOSITIONS FROM MUSHROOMS OR FILAMENTOUS FUNGI AND METHODS OF USE” (priority 2006, published 2009)

Columns and labels:
[1] = cited from earlier work
[2] = Peroxynitrite radical averting capacity (NORAC) assay; type: biochemical; conditions: pure ERG
Method: The NORAC assay was modified on a previously reported method. All data was expressed as micromoles of Trolox equivalents (TE) equivalents per gram of dry weight (μmol of TE/g dw). The freeze-dried forms of the mushrooms were used for testing and then the data was converted to a FW basis according to the dry weight of the fresh mushroom samples, which were obtained from one crop. For each analysis, triplicate extractions were performed and used for analysis.
Under physiological conditions, the formation of ONOO^− can easily result due to the cellular production and interaction of nitric oxide and superoxide radicals. Damage to protein, especially aromatic compounds can result from ONOO^−. A limited number of papers have been published regarding the antioxidant capacity against ONOO^−. The NORAC assay is a relatively new assay. SIN-1 is used in the NORAC assay, which when heated decomposes to produce ONOO^−. DHR-123 (non-fluorescent) is used as the probe, which becomes oxidized by the presence of ONOO^− to become rhodamine 123 (fluoresces). If antioxidants present in the sample are able to scavenge ONOO^−, a delay in fluorescence will occur due to the protection of the probe offered by the antioxidant. Generally, compounds that can scavenge ONOO^− will provide high NORAC values. […]

[3] = Hydrophilic ORACFL assay (ORAChydro); type: biochemical; conditions: pure ERG
Description: The lipophilic ORACFL assay (ORAClipo) was based on a previous reported method. Hydrophilic ORACFL assay (ORAChydro) was based on a previous reported method. All data was expressed as micromoles of Trolox equivalents (TE) per gram of dry weight (μmol TE/g dw). The freeze-dried forms of the mushrooms were used for testing and the data was reported as dry weight. When reporting amount per serving, the data was converted to a fresh weight basis according to the dry weight of the fresh mushroom samples. For each analysis, triplicate extractions were performed from one crop and used for analysis. ORACtotal was determined by calculating the sum of ORAClipo and ORAChydro results.

[4] = Hydroxyl radical averting capacity (HORAC) assay; type: biochemical; conditions: pure ERG
Description: The HORAC assay was based on a previously reported method, however caffeic acid (CA) was used as the standard due to CA providing a wider linear range as compared to gallic acid. All data was expressed as micromoles of caffeic acid equivalents (CAE) equivalents per gram of dry weight (μmol CAE/g dw). The freeze-dried forms of the mushrooms were used for testing and the data was reported as dry weight. When reporting amount per serving, the data was converted to a fresh weight basis according to the dry weight of the fresh mushroom samples. For each analysis, triplicate extractions were performed from one crop and used for analysis.
HO. radicals are highly reactive and can be generated via the Fenton reaction. Due to the fact that HO. radicals are short lived with a high rate constant, it is unlikely that antioxidants present at biological concentrations will be able to scavenge the HO radical. However antioxidants, which are able to act as metal chelators, may be able to prevent the formation of the HO. radical, thus acting as a preventative antioxidant. The HORAC assays measures the ability of the antioxidant present to chelate Co(II) prior to the Fenton reaction cocurring. HORAC values ranged between 3.0-13.6 μmole CAE/g dw. There was a significant difference found within the different A. bisporus mushrooms. […]

[5] = Super-oxide radical averting capacity (SORAC) assay; type: biochemical; conditions: pure ERG
Description: SORAC assays were based on the previously described method by Zhao and coworkers. Simply, hydroethidine was used as a probe in measuring O2^− scavenging capacity. […] Addition of SOD inhibits the hydroethidine oxidation. All data was expressed as superoxide equivalents per gram of dry weight (kunitSOD eq/g dw). The freeze-dried forms of the mushrooms were used for testing and the data was reported as dry weight. When reporting amount per serving, the data was converted to a fresh weight basis according to the dry weight of the fresh mushroom samples. For each analysis, triplicate extractions from one crop were performed and used for analysis.
Another biological relevant free radical is O2^− which is less reactive than HO., however O2^− does react very quickly with certain radicals, such as nitric oxide. The SORAC assay is a newly developed assay. Hydroethidine (nonfluorescent) is used as the probe, which is oxidized (fluoresces) in the presence of O2^− that is generated from a xanthine and xanthine oxidase mixture. If antioxidants present in the sample are able to scavenge O2^−, a delay in fluorescence will occur due to the protection of the probe offered by the antioxidant. Generally, compounds that can scavenge O2^− will provide high SORAC values. […]

## C[N+](C)(C)[C@@H](Cc1c[nH]c(=S)[nH]1)C(=O)[O-] [Ergo, L-ergothioneine]
[1]; nonpolar solvents
  solubility in nonpolar solvents: insoluble
[1]; water, room temperature
  water soluble up to: up to 0.9 M
[2]
  NORAC value of ERG: 407 μmole TE/g
[3]
  ORAChydro value of ERG: 6,440 μmole TE/g
[4]
  HORAC value of ERG: 231 μmole CAE/g
[5]
  SORAC value of ERG: non-detectable
